# What was measured:
# [1] = test system: lambsquarters; experiment: Test C postemergence; assay type: in vivo, Chenopodium album
# Procedure, shortened: (§1)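 Visual control ratings on a 0–100 scale (100 = complete control) made against untreated controls after 13 to 15 days in greenhouse. Compounds applied in surfactant-containing solvent mixture, either preemergence to loam/sand-sown seeds or postemergence to 1- to 4-leaf plants (2–18 cm) in peat medium.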
# [2] = test system: waterhemp; experiment: Test C postemergence; assay type: in vivo, Amaranthus rudis
# Procedure, shortened: as §1
# [3] = test system: soybean; experiment: Test C postemergence; assay type: in vivo, Glycine max
# Procedure, shortened: as §1
# [4] = test system: wheat; experiment: Test C postemergence; assay type: in vivo, Triticum aestivum
# Procedure, shortened: as §1
# [5] = test system: corn; experiment: Test C postemergence; assay type: in vivo, Zea mays
# Procedure, shortened: as §1
# [6] = test system: foxtail, giant; experiment: Test A postemergence; assay type: in vivo, Setaria faberii
# Procedure, shortened: (§2)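 Visual injury rating, 0–100 (0 no effect, 100 complete control), vs untreated controls ~10 days after treatment in greenhouse. Pre: directed soil spray on seeded loam/sand. Post: 2–10 cm plants, 1–2 leaf stage. Formulation: non-phytotoxic solvent mix + surfactant.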
# [7] = test system: velvetleaf; experiment: Test C postemergence; assay type: in vivo, Abutilon theophrasti
# Procedure, shortened: as §1
# [8] = test system: ragweed; experiment: Test C preemergence; assay type: in vivo, Ambrosia elation; conditions: for Ragweed plant response rating: preemergence
# Procedure, shortened: as §1
# [9] = test system: oilseed rape; experiment: Test C preemergence; assay type: in vivo, Brassica napus; conditions: for Oilseed Rape plant response rating: preemergence
# Procedure, shortened: as §1
# [10] = test system: corn; experiment: Test A postemergence; assay type: in vivo, Zea mays
# Procedure, shortened: as §2
# [11] = test system: ragweed; experiment: Test C postemergence; assay type: in vivo, Ambrosia elation
# Procedure, shortened: as §1
# [12] = test system: soybean; experiment: Test C preemergence; assay type: in vivo, Glycine max; conditions: for Soybean plant response rating: preemergence
# Procedure, shortened: as §1
# [13] = test system: pigweed; experiment: Test C preemergence; assay type: in vivo, Amaranthus retroflexus; conditions: for Pigweed plant response rating: preemergence
# Procedure, shortened: as §1
# [14] = Postemergence, 31 g ai/ha, visually evaluated after 13 to 15 days
# [15] = postemergence, 62 g ai/ha, scale 0 to 100
# [16] = postemergence, 250 g ai/ha, scale 0 to 100 (0 no effect, 100 complete control)
# [17] = postemergence, 125 g ai/ha, scale 0 to 100, 0 no effect, 100 complete control
# [18] = Postemergence, 500 g ai/ha, 0 to 100 scale (0 no effect, 100 complete control)
# [19] = postemergence, 125 g ai/ha, about 10 days, visual rating on 0 to 100 scale (0 no effect, 100 complete control)
# [20] = 31 g ai/ha, visual rating, scale 0 to 100 (0 no effect, 100 complete control), 13 to 15 days
# [21] = 62 g ai/ha, scale 0 to 100 (0 no effect, 100 complete control), 13 to 15 days
# [22] = 125 g ai/ha, scale 0 to 100, 0 is no effect, 100 is complete control
smiles,measurement,setting,value
CCc1cc(C(=O)NOC(C)C)nn1Cc1ccnc(OC(F)F)c1 [Compound 126],"Plant response rating (scale of 0 to 100 where 0 is no effect and 100 is complete control), Lambsquarters",[1]; [14],35
same,Lambsquarters plant response rating,[1]; [15],70
same,"Plant response rating, Lambsquarters",[1]; [16],90
same,"Plant response rating, Lambsquarters",[1]; [17],80
same,"Plant response rating (scale of 0 to 100 where 0 is no effect and 100 is complete control), Waterhemp",[2]; [14],40
same,Waterhemp plant response rating,[2]; [15],50
same,"Plant response rating, Waterhemp",[2]; [16],90
same,"Plant response rating, Waterhemp",[2]; [17],70
same,"Plant response rating (scale of 0 to 100 where 0 is no effect and 100 is complete control), Soybean",[3]; [14],40
same,Soybean plant response rating,[3]; [15],45
same,"Plant response rating, Soybean",[3]; [16],65
same,"Plant response rating, Soybean",[3]; [17],55
same,"Plant response rating (scale of 0 to 100 where 0 is no effect and 100 is complete control), Wheat",[4]; [14],5
same,Wheat plant response rating,[4]; [15],5
same,"Plant response rating, Wheat",[4]; [16],5
same,"Plant response rating, Wheat",[4]; [17],5
same,"Plant response rating (scale of 0 to 100 where 0 is no effect and 100 is complete control), Corn",[5]; [14],5
same,Corn plant response rating,[5]; [15],10
same,"Plant response rating, Corn",[5]; [16],55
same,"Plant response rating, Corn",[5]; [17],35
same,"Foxtail, Giant plant response rating",[6]; [18],90
same,"Foxtail, Giant plant response rating",[6]; [19],90
same,"Plant response rating (scale of 0 to 100 where 0 is no effect and 100 is complete control), Velvetleaf",[7]; [14],30
same,Velvetleaf plant response rating,[7]; [15],25
same,"Plant response rating, Velvetleaf",[7]; [16],70
same,"Plant response rating, Velvetleaf",[7]; [17],35
same,"Plant response rating (scale of 0 to 100), Ragweed","[8]; Preemergence, 250 g ai/ha",90
same,Ragweed plant response rating,[8]; [20],70
same,Ragweed plant response rating,[8]; [21],100
same,Ragweed plant response rating,[8]; [22],100
same,"Plant response rating (scale of 0 to 100), Oilseed Rape","[9]; Preemergence, 250 g ai/ha",100
same,Oilseed Rape plant response rating,[9]; [20],85
same,Oilseed Rape plant response rating,[9]; [21],100
same,Oilseed Rape plant response rating,[9]; [22],100
same,Corn plant response rating,[10]; [18],90
same,Corn plant response rating,[10]; [19],90
same,"Plant response rating (scale of 0 to 100 where 0 is no effect and 100 is complete control), Ragweed",[11]; [14],30
same,Ragweed plant response rating,[11]; [15],35
same,"Plant response rating, Ragweed",[11]; [16],80
same,"Plant response rating, Ragweed",[11]; [17],55
same,"Plant response rating (scale of 0 to 100), Soybean","[12]; Preemergence, 250 g ai/ha",98
same,Soybean plant response rating,[12]; [20],25
same,Soybean plant response rating,[12]; [21],40
same,Soybean plant response rating,[12]; [22],75
same,"Plant response rating (scale of 0 to 100), Pigweed","[13]; Preemergence, 250 g ai/ha",100
same,Pigweed plant response rating,[13]; [20],100
same,Pigweed plant response rating,[13]; [21],85
same,Pigweed plant response rating,[13]; [22],100

# Source: patent US20150105252A1, “SUBSTITUTED PYRAZOLES AS HERBICIDES” (E I DU PONT DE NEMOURS AND COMPANY, priority 2013, published 2015)
